Data taken from ChEMBL document CHEMBL5500363, “Discovery of novel ocotillol derivatives modulating glucocorticoid receptor/NF-κB signaling for the treatment of sepsis” (Eur J Med Chem, 2024).
Calls of active or inactive are those of the source. The rule behind the calls is not given here.

How the values were obtained:
[1] = molecular target: T1, Glucocorticoid receptor (Mus musculus) (UniProt P06537); experiment: Stabilization of glucocorticoid receptor in mouse RAW264.7 cells assessed as blockade of CHX-induced protein degradation at 20 uM incubated for 24 hrs by Western blot analysis; assay type: cell-based
T1 sequence (whole entry): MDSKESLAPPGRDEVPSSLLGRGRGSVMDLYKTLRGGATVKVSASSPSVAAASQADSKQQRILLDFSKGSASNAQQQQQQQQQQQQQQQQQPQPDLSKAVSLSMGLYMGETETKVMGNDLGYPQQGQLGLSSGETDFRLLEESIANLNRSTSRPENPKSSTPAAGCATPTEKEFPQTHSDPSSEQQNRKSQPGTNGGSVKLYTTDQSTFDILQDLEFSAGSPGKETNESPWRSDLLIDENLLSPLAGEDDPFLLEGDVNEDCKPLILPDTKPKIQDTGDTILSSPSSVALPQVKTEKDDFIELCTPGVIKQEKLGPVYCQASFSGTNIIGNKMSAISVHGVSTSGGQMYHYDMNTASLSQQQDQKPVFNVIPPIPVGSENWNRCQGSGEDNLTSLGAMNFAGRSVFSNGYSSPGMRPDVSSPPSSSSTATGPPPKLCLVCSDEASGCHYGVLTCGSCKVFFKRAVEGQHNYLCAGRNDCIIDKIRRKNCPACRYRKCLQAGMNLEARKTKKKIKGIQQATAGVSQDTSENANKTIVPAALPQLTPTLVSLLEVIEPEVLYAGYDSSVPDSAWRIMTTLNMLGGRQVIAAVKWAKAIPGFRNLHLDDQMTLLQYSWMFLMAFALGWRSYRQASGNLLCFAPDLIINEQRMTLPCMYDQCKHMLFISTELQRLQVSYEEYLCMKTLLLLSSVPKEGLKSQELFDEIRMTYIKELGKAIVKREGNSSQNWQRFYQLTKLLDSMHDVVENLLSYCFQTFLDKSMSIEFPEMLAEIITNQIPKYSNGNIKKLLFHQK

[2] = tested on: RAW264.7; experiment: Effect on KLF9 mRNA expression in mouse RAW264.7 cells by qPCR analysis; assay type: functional, cell-based
[3] = tested on: Mus musculus; experiment: Downregulation of I-kappa-B-alpha phosphorylation in liver of LPS-induced sepsis BALB/c mouse model at 7.5 to 30 mg/kg administered via gavage for 3 days followed by LPS treatment for 6 hrs by Western blot analysis; assay type: functional, organism-based; conditions: dose 7.5-30 mg/kg, time 78.0 hrs
[4] = tested on: Mus musculus; experiment: Downregulation of p65 phosphorylation in liver of LPS-induced sepsis BALB/c mouse model at 7.5 to 30 mg/kg administered via gavage for 3 days followed by LPS treatment for 6 hrs by Western blot analysis; assay type: functional, organism-based; conditions: dose 7.5-30 mg/kg, time 78.0 hrs
[5] = tested on: RAW264.7; experiment: Inhibition of LPS-induced NO production in mouse RAW264.7 cells at 20 uM pretreated for 2 hrs followed by LPS stimulation for 24 hrs by Griess assay relative to control; assay type: functional; conditions: time 26 hrs
[6] = tested on: RAW264.7; experiment: Anti-inflammatory activity in mouse RAW264.7 cells assessed as decrease in LPS-induced p65 phosphorylation at 20 uM pretreated for 2 hrs followed by LPS stimulation for 24 hrs by Western blot analysis; assay type: functional, cell-based; conditions: time 26.0 hrs
[7] = tested on: RAW264.7; experiment: Inhibition of LPS-induced NO production in mouse RAW264.7 cells at 10 uM pretreated for 2 hrs followed by LPS stimulation for 24 hrs by Griess assay relative to control; assay type: functional; conditions: time 26 hrs
[8] = tested on: Mus musculus; experiment: Anti-septic activity in LPS-induced sepsis BALB/c mouse assessed as reduction in serum ALT level at 30 mg/kg administered via gavage for 3 days followed by LPS treatment for 6 hrs; assay type: functional, organism-based; conditions: time 78.0 hrs
[9] = tested on: RAW264.7; experiment: Anti-inflammatory activity in mouse RAW264.7 cells assessed as decrease in LPS-induced I-kappaB-alpha phosphorylation at 20 uM pretreated for 2 hrs followed by LPS stimulation for 24 hrs by Western blot analysis; assay type: functional, cell-based; conditions: time 26.0 hrs
[10] = tested on: RAW264.7; experiment: Inhibition of LPS-induced NO production in mouse RAW264.7 cells pretreated for 2 hrs followed by LPS stimulation for 24 hrs by Griess assay; assay type: functional, cell-based
[11] = tested on: RAW264.7; experiment: Inhibition of LPS-induced NO production in mouse RAW264.7 cells at 5 uM pretreated for 2 hrs followed by LPS stimulation for 24 hrs by Griess assay relative to control; assay type: functional; conditions: time 26 hrs
[12] = tested on: Mus musculus; experiment: Anti-septic activity in LPS-induced sepsis BALB/c mouse assessed as reduction in serum CRP level at 30 mg/kg administered via gavage for 3 days followed by LPS treatment for 6 hrs; assay type: functional, organism-based; conditions: time 78.0 hrs
[13] = tested on: Mus musculus; experiment: Anti-septic activity in LPS-induced sepsis BALB/c mouse assessed as reduction in serum AST level at 30 mg/kg administered via gavage for 3 days followed by LPS treatment for 6 hrs; assay type: functional, organism-based; conditions: time 78.0 hrs
[14] = tested on: RAW264.7; experiment: Anti-inflammatory activity in LPS-treated mouse RAW264.7 cells assessed as reversal of nuclear translocation of p65 at 20 uM pretreated for 2 hrs followed by LPS stimulation for 24 hrs by immunofluorescence analysis; assay type: functional, cell-based; conditions: time 26.0 hrs
[15] = tested on: RAW264.7; experiment: Downregulation of glucocorticoid receptor in mouse RAW264.7 cells at 1 uM incubated for 24 hrs by Western blot analysis; assay type: functional, cell-based
[16] = tested on: RAW264.7; experiment: Downregulation of glucocorticoid receptor in LPS-treated mouse RAW264.7 cells at 1 uM incubated for 24 hrs by qRT-PCR analysis; assay type: functional, cell-based

CC(C)=CCC[C@@](C)(O)C1CC[C@]2(C)[C@@H]1[C@H](O)C[C@@H]1[C@@]3(C)CC[C@H](O)C(C)(C)[C@@H]3CC[C@]12C (stereo partly specified)
Activity [1]: inactive | Activity [2]: inactive | Activity [3]: inactive | Activity [4]: inactive | inhibition at 20 µM [5]: 31.4% | Activity [6]: Active | inhibition at 10 µM [7]: 11.2% | Activity [8]: Active | Activity [9]: Active | IC50 [10]: 34.4 µM | inhibition at 5 µM [11]: 7.09% | Activity [12]: Active | Activity [13]: Active | Activity [14]: Active

C[C@@H]1C[C@H]2[C@@H]3CCC4=CC(=O)C=C[C@]4(C)[C@@]3(F)[C@@H](O)C[C@]2(C)[C@@]1(O)C(=O)CO
Activity [15]: Active | Activity [16]: Active
